Assay results reported in ChEMBL document CHEMBL3885881, “DrugMatrix”.

Species: Rattus norvegicus
Experiment: DrugMatrix - Regimen: Daily Repeat
Format: toxicity, organism-based, Sprague-Dawley
Set-up: regimen Daily Repeat, gender Male, age 6-8 weeks
Details: in vivo, po, route oral GAVAGE, vehicle 100 % SALINE; for ABSOLUTE BASOPHIL / ABSOLUTE EOSINOPHIL / ABSOLUTE LYMPHOCYTE / ABSOLUTE MONOCYTE / ABSOLUTE SEGMENTED NEUTROPHIL / BASOPHIL / EOSINOPHIL / ERYTHROCYTE COUNT / HEMATOCRIT / HEMOGLOBIN / LEUKOCYTE COUNT / LYMPHOCYTE / MEAN CORPUSCULAR HEMOGLOBIN / MEAN CORPUSCULAR HEMOGLOBIN CONCENTRATION / MONOCYTE / NEUTROPHIL / NUCLEATED RED BLOOD CELLS / PLATELET COUNT: tissue Blood; for ALANINE AMINOTRANSFERASE / ALBUMIN / ALKALINE PHOSPHATASE / ASPARTATE AMINOTRANSFERASE / BLOOD UREA NITROGEN / CARBON DIOXIDE / CHOLESTEROL / CREATINE PHOSPHOKINASE / CREATININE / GLUCOSE / LACTATE DEHYDROGENASE / LIPASE / POTASSIUM / SODIUM / TOTAL BILIRUBIN / TOTAL PROTEIN / URIC ACID: tissue Plasma
[1] = 0 mg/kg, 72 h, dose level Control, time 3 day
[2] = 0 mg/kg, 120 h, dose level Control, time 5 day
[3] = 330 mg/kg, 72 h, dose level Low, time 3 day

Nc1nc2c(ncn2COCCO)c(=O)[nH]1 [ACYCLOVIR]
ABSOLUTE BASOPHIL [1]: 0 CELLS/uL | ABSOLUTE EOSINOPHIL [1]: 37 CELLS/uL | ABSOLUTE LYMPHOCYTE [1]: 12359.33 CELLS/uL | ABSOLUTE MONOCYTE [1]: 122.67 CELLS/uL | ABSOLUTE SEGMENTED NEUTROPHIL [1]: 847.67 CELLS/uL | BASOPHIL [1]: 0% | EOSINOPHIL [1]: 0.33% | ERYTHROCYTE COUNT [1]: 5.75 x10E6/uL | HEMATOCRIT [1]: 36.08% | HEMOGLOBIN [1]: 14.07 G/DL | LEUKOCYTE COUNT [1]: 13.37 x10E3/uL | LYMPHOCYTE [1]: 92.5% | MEAN CORPUSCULAR HEMOGLOBIN [1]: 24.47 pg | MEAN CORPUSCULAR HEMOGLOBIN CONCENTRATION [1]: 38.98 G/DL | MONOCYTE [1]: 1% | NEUTROPHIL [1]: 6.17% | NUCLEATED RED BLOOD CELLS [1]: 0.17 /100WBC | PLATELET COUNT [1]: 1202.17 x10E3/uL | ALANINE AMINOTRANSFERASE [1]: 50.67 u/L | ALBUMIN [1]: 4.13 G/DL | ALKALINE PHOSPHATASE [1]: 356.33 u/L | ASPARTATE AMINOTRANSFERASE [1]: 78.17 u/L | BLOOD UREA NITROGEN [1]: 14.17 mg/dL | CARBON DIOXIDE [1]: 31.33 mmol/L | CHOLESTEROL [1]: 76.5 mg/dL | CREATINE PHOSPHOKINASE [1]: 248.33 u/L | CREATININE [1]: 0.2 mg/dL | GLUCOSE [1]: 144 mg/dL | LACTATE DEHYDROGENASE [1]: 107 u/L | LIPASE [1]: 9.83 u/L | POTASSIUM [1]: 6.75 MEQ/L | SODIUM [1]: 142 MEQ/L | TOTAL BILIRUBIN [1]: 0.18 mg/dL | TOTAL PROTEIN [1]: 5.98 G/DL | URIC ACID [1]: 1.42 mg/dL | ABSOLUTE BASOPHIL [2]: 0 CELLS/uL | ABSOLUTE EOSINOPHIL [2]: 0 CELLS/uL | ABSOLUTE LYMPHOCYTE [2]: 8681.17 CELLS/uL | ABSOLUTE MONOCYTE [2]: 79.83 CELLS/uL | ABSOLUTE SEGMENTED NEUTROPHIL [2]: 689 CELLS/uL | BASOPHIL [2]: 0% | EOSINOPHIL [2]: 0% | ERYTHROCYTE COUNT [2]: 5.49 x10E6/uL | HEMATOCRIT [2]: 33.55% | HEMOGLOBIN [2]: 13.1 G/DL | LEUKOCYTE COUNT [2]: 9.45 x10E3/uL | LYMPHOCYTE [2]: 92.33% | MEAN CORPUSCULAR HEMOGLOBIN [2]: 23.92 pg | MEAN CORPUSCULAR HEMOGLOBIN CONCENTRATION [2]: 39.07 G/DL | MONOCYTE [2]: 0.67% | NEUTROPHIL [2]: 7% | NUCLEATED RED BLOOD CELLS [2]: 0.17 /100WBC | PLATELET COUNT [2]: 1001.17 x10E3/uL | ALANINE AMINOTRANSFERASE [2]: 49.33 u/L | ALBUMIN [2]: 4.07 G/DL | ALKALINE PHOSPHATASE [2]: 300.33 u/L | ASPARTATE AMINOTRANSFERASE [2]: 83.5 u/L | BLOOD UREA NITROGEN [2]: 16 mg/dL | CARBON DIOXIDE [2]: 29.67 mmol/L | CHOLESTEROL [2]: 74.33 mg/dL | CREATINE PHOSPHOKINASE [2]: 489.67 u/L | CREATININE [2]: 0.35 mg/dL | GLUCOSE [2]: 151 mg/dL | LACTATE DEHYDROGENASE [2]: 133.67 u/L | LIPASE [2]: 11.17 u/L | POTASSIUM [2]: 5.5 MEQ/L | SODIUM [2]: 145.7 MEQ/L | TOTAL BILIRUBIN [2]: 0.2 mg/dL | TOTAL PROTEIN [2]: 6.05 G/DL | URIC ACID [2]: 0.68 mg/dL | ABSOLUTE BASOPHIL [3]: 0 CELLS/uL | ABSOLUTE EOSINOPHIL [3]: 0 CELLS/uL | ABSOLUTE LYMPHOCYTE [3]: 14421.67 CELLS/uL | ABSOLUTE MONOCYTE [3]: 118.67 CELLS/uL | ABSOLUTE SEGMENTED NEUTROPHIL [3]: 559.67 CELLS/uL | BASOPHIL [3]: 0% | EOSINOPHIL [3]: 0% | ERYTHROCYTE COUNT [3]: 5.8 x10E6/uL | HEMATOCRIT [3]: 35.43% | HEMOGLOBIN [3]: 13.97 G/DL | LEUKOCYTE COUNT [3]: 15.1 x10E3/uL | LYMPHOCYTE [3]: 95% | MEAN CORPUSCULAR HEMOGLOBIN [3]: 24.1 pg | MEAN CORPUSCULAR HEMOGLOBIN CONCENTRATION [3]: 39.4 G/DL | MONOCYTE [3]: 0.67% | NEUTROPHIL [3]: 4.33% | NUCLEATED RED BLOOD CELLS [3]: 0 /100WBC | PLATELET COUNT [3]: 1133.33 x10E3/uL | ALANINE AMINOTRANSFERASE [3]: 50 u/L | ALBUMIN [3]: 4.3 G/DL | ALKALINE PHOSPHATASE [3]: 334 u/L | ASPARTATE AMINOTRANSFERASE [3]: 88.67 u/L | BLOOD UREA NITROGEN [3]: 17.33 mg/dL | CARBON DIOXIDE [3]: 25.67 mmol/L | CHOLESTEROL [3]: 70 mg/dL | CREATINE PHOSPHOKINASE [3]: 328.33 u/L | CREATININE [3]: 0.34 mg/dL | GLUCOSE [3]: 183 mg/dL | LACTATE DEHYDROGENASE [3]: 177.67 u/L | LIPASE [3]: 10.33 u/L | POTASSIUM [3]: 5.7 MEQ/L | SODIUM [3]: 144.1 MEQ/L | TOTAL BILIRUBIN [3]: 0.13 mg/dL | TOTAL PROTEIN [3]: 6.17 G/DL | URIC ACID [3]: 2.2 mg/dL
